Measured values taken from patent US20110009628A1, “Compounds and Compositions for Modulating Lipid Levels and Methods of Preparing Same” (priority 2009, published 2011).
Counter-ions that a name gives are not always drawn. Marks after values point to notes of the source that are not given here.

What was measured:
[1] = test system: PCSK9 protein expression in HepG2 cells; experiment: Western blot of PCSK9 protein in HepG2 cells, Compounds 162 and 163; type: cell-based, human; conditions: 20 μM, time-dependent, FIG. 7
Description: FIG. 7 is a Western blot analysis of LDLR and PCSK9 expression in HepG2 cells. HepG2 cells seeded in 12-well culture plates were cultured in 0.5% FBS MEM overnight. Compounds 162 and 163 at 20 μM were added to cells for the indicated times. Untreated and treated cells were harvested at the same indicated time points. Total cell lysates were isolated and 50 μg per sample was analyzed for LDLR and PCSK9 protein abundance by western blotting. The membrane was reprobed with anti-actin antibody to examine the equal loading of cell lysates.
Recent studies have identified the liver secreted serine protease PCSK9 (proprotein convertase subtilisin type 9) as a natural inhibitor of LDLR protein expression that degrades hepatic LDLR protein, thus increasing circulating LDL-C levels.

Hyperlipidemic Hamsters = experiment: Serum lipids and biochemistry in hyperlipidemic hamsters on high fat high cholesterol diet, 2 weeks oral Compound 162; type: in vivo, Golden Syrian Hamsters; conditions: for ALT / AST / BUN / Bil-T / Creatinine / Glucose / HDL-C / TC / TG: serum, HFHC feeding, n = 10
Description: Male hamsters were fed a cholesterol-enriched diet for 14 days before the daily oral feeding of Compound 162 at 30, 60, and 100 mg/kg, or an equal volume of vehicle for 2-weeks. Serum samples were collected after 2 weeks of treatment and analyzed for TC, TG, and HDL-C. The data shown are mean±SEM of 10 hamsters per group (* p<0.05, ** p<0.01 compared to untreated control group).
Male Golden Syrian Hamsters were used as an animal model to examine the in vivo effects of Compound 162 in plasma lipid levels. In one experiment, 40 male hamsters under a high fat and high cholesterol diet were divided into 4 groups of 10 hamsters per group. Group 1 was given vehicle only and groups 2-4 were given Compound 162 at 30, 60, and 100 mg/kg/day by an orogastric tube for 2 weeks. At the end of treatment, hamsters were sacrificed and blood and sera were collected to measure lipid levels and several critical parameters of liver function and kidney function.

[2] = 100 mg/kg, 2 weeks, hamsters, FIG. 8

**Q.** What does the source list for `COc1cc2c(cc1OC)C1Cc3ccc(OC)c(OS(=O)(=O)c4cccc(F)c4)c3CN1CC2` (single isomer, unassigned) [Compound 162, 2,3,10-Trimethoxy-5,6,7,8,13,13a-hexahydroisoquinolino[2,1-b]isoquinolin-9-yl 3-fluorobenzenesulfonate phosphate Salt (Enantiomer having positive optical rotation)]?
**A.** PCSK9 cellular levels [1]: greatly decreased; increase of HDL-C (Hyperlipidemic Hamsters; [2]): 21%; reduction of serum TC (Hyperlipidemic Hamsters; [2]): 46%; reduction of serum TG (Hyperlipidemic Hamsters; [2]): 63.7%; VLDL-C, LDL-C in pooled serum (HPLC lipoprotein profile) (Hyperlipidemic Hamsters; 30, 60, 100 mg/kg/day, hamsters fed the HFHC diet, FIGS. 9A and 9B): dose-dependently lowered; Blood glucose level (Hyperlipidemic Hamsters; hamsters, 2 weeks): not changed; kidney function (Hyperlipidemic Hamsters; hamsters, 2 weeks): improved; serum levels of AST and ALT versus control group (Hyperlipidemic Hamsters; hamsters, 2 weeks): statistically lower; ALT (Hyperlipidemic Hamsters; 30 mkg, 2 weeks): 441 ± 401 IU/L; AST (Hyperlipidemic Hamsters; 30 mkg, 2 weeks): 202.0 ± 135 IU/L; BUN (Hyperlipidemic Hamsters; 30 mkg, 2 weeks): 4.5 ± 0.9 mmol/L; Bil-T (Hyperlipidemic Hamsters; 30 mkg, 2 weeks): 0.6 ± 1.0 µmol/L; Creatinine (Hyperlipidemic Hamsters; 30 mkg, 2 weeks): 17.8 ± 6.1* umol/L; Glucose (Hyperlipidemic Hamsters; 30 mkg, 2 weeks): 3.8 ± 0.8 mmol/L; HDL-C (Hyperlipidemic Hamsters; 30 mkg, 2 weeks): 3.9 ± 0.5 mmol/L; TC (Hyperlipidemic Hamsters; 30 mkg, 2 weeks): 19.0 ± 10.1 mmol/L; TG (Hyperlipidemic Hamsters; 30 mkg, 2 weeks): 9.4 ± 9.2 mmol/L; ALT (Hyperlipidemic Hamsters; 60 mkg, 2 weeks): 353 ± 250 IU/L; AST (Hyperlipidemic Hamsters; 60 mkg, 2 weeks): 151.5 ± 61 IU/L; BUN (Hyperlipidemic Hamsters; 60 mkg, 2 weeks): 5.0 ± 0.7 mmol/L; Bil-T (Hyperlipidemic Hamsters; 60 mkg, 2 weeks): 0.3 ± 0.3* umol/L; Creatinine (Hyperlipidemic Hamsters; 60 mkg, 2 weeks): 15.7 ± 4.2** umol/L; Glucose (Hyperlipidemic Hamsters; 60 mkg, 2 weeks): 5.0 ± 1.0 mmol/L; HDL-C (Hyperlipidemic Hamsters; 60 mkg, 2 weeks): 3.9 ± 0.5 mmol/L; TC (Hyperlipidemic Hamsters; 60 mkg, 2 weeks): 16.9 ± 8.7* mmol/L; TG (Hyperlipidemic Hamsters; 60 mkg, 2 weeks): 7.6 ± 8.1* mmol/L; ALT (Hyperlipidemic Hamsters; 100 mkg, 2 weeks): 376 ± 262 IU/L; AST (Hyperlipidemic Hamsters; 100 mkg, 2 weeks): 150.4 ± 42 IU/L; BUN (Hyperlipidemic Hamsters; 100 mkg, 2 weeks): 4.8 ± 0.7 mmol/L; Bil-T (Hyperlipidemic Hamsters; 100 mkg, 2 weeks): 0.2 ± 0.2* umol/L; Creatinine (Hyperlipidemic Hamsters; 100 mkg, 2 weeks): 15.3 ± 3.2** umol/L; Glucose (Hyperlipidemic Hamsters; 100 mkg, 2 weeks): 5.0 ± 1.3 mmol/L; HDL-C (Hyperlipidemic Hamsters; 100 mkg, 2 weeks): 4.2 ± 0.5** mmol/L; TC (Hyperlipidemic Hamsters; 100 mkg, 2 weeks): 16.4 ± 5.8*** mmol/L; TG (Hyperlipidemic Hamsters; 100 mkg, 2 weeks): 6.7 ± 5.2* mmol/L
